Results from patent US9283281B2, “Preparation of triple responsive nanogel system and its application” (University of South Carolina, priority 2013, dated 2016).

Test system: UMSCC22A cells
Assay: Cell death after PDT by propidium iodide fluorometry
Assay type: cell-based
Details: after irradiation; after 5 h of PDT
Method: After exposure to red light, cells were incubated for various periods of time prior to analysis.
Cell death was assessed by propidium iodide (PI) fluorometry using a multi-well fluorescence plate reader, as previously described. Human head and neck cancer cells (UMSCC22A) were plated on 96-well plates (15,000 cells/well) in Dulbecco's Modified Eagle's Medium (DMEM) (Gibco) supplemented with 10% fetal bovine serum (FBS) and penicillin/streptomycin (complete culture medium) in a humidified 37° C. incubator at 5% CO2/95% air. […] Before exposure to light, cells were changed to fresh medium supplemented with PI (30 μM) and Insulin-Transferrin-Selenium-X (ITX) reagent [insulin (10 μg/ml), transferrin (5.5 μg/m), selenium (6.7 ng/ml), ethanolamine (0.2 mg/ml)] (Gibco) but omitting FBS. PI fluorescence was measured at frequent intervals using 530 nm excitation (25 nm band pass) and 620 nm emission (40 nm band pass) filters. Between measurements, microtiter plates were placed in a 37° C. incubator. At the end of the experiment, digitonin (200 μM) was added to each well to permeabilize all cells and label all nuclei with PI. Cell viability determined by PI fluorometry is essentially the same as cell viability determined by trypan blue exclusion.

## Silicon phthalocyanine [Pc 4]
  cell killing: 35%
